Data taken from patent publication US20080050755A1, “Method for screening for chemotherapeutic treatments for cancer” (priority 2000, published 2008).

System: Tcf/Lef reporter activity (endogenous β-catenin) in 293T cells
Assay: Tcf/Lef reporter assay (pTOPFLASH/pFOPFLASH) in adriamycin-treated 293T cells
Type: cell-based
Settings: 293T cells treated with 1 µg/ml adriamycin 8 hours after transfection for 16 hours; FIG. 6E
Source text: FIGS. 6A, 6B, 6C, and 6E illustrate that Siah-1 mediates p53-induced degradation of β-catenin. […] 293T cells were transiently co-transfected with an internal control (pEGFP) and the indicated plasmids. The amount of DNA in each transfection was kept constant by the addition of an appropriate amount of empty expression vector. Whole cell lysates were subjected to Western analysis. Blots were probed with mouse monoclonal antibodies to the Myc epitope tag (upper panel) and GFP (lower panel). FIG. 6C illustrate the pulse-chase analysis of ectopically expressed Myc-tagged β-catenin. […] Immunoprecipitated Myc-β-catenin was subjected to SDS-PAGE and dried gels were analyzed with a PhosphorImager. […]
Cell culture, transfection, reporter assay, co-immunoprecipitation and immmunoblotting. […] Luciferase and β-galactosidase activity was measured 24 hours after transfecton. Tcf/Lef reporter activity was determined as described. […] The whole cell extract (WCE) was immunoprecipitated using a mouse monoclonal antibody specific for the amino-terminus of pAPC (Ab-5, Oncogene Research) or a control mouse IgG, and associated Myc-Siah-1 protein was detected by immunoblotting using an anti-Myc monoclonal antibody (9E10). The pAPC in WCE (20 µg) and immunoprecipitates was detected using an anti-APC mouse monoclonal antibody (Ab-1, Oncogene Research). […]

Structure (SMILES): COc1cccc2c1C(=O)c1c(O)c3c(c(O)c1C2=O)C[C@@](O)(C(=O)CO)C[C@@H]3O[C@H]1C[C@H](N)[C@H](O)[C@H](C)O1 [adriamycin]
- Tcf/Lef reporter activity (TOP/FOP): decreased Tcf/Lef reporter activity
